Patent US8772500B2, “TRPV3 modulators” (AbbVie Inc., priority 2011, dated 2014)

Assays:
human TRPV3 = molecular target: T1, human TRPV3 (Homo sapiens, UniProt Q8NET8); assay: In vitro antagonism of recombinant human TRPV3 activation (FLIPR Tetra calcium assay, 2-APB as agonist); format: cell-based; conditions: HEK293 cells stably expressing human TRPV3; 2-APB 80 μM; range class; read-out: IC50 (reported range)
T1 construct: expressed in transfected cells
T1 sequence (Q8NET8 1-790): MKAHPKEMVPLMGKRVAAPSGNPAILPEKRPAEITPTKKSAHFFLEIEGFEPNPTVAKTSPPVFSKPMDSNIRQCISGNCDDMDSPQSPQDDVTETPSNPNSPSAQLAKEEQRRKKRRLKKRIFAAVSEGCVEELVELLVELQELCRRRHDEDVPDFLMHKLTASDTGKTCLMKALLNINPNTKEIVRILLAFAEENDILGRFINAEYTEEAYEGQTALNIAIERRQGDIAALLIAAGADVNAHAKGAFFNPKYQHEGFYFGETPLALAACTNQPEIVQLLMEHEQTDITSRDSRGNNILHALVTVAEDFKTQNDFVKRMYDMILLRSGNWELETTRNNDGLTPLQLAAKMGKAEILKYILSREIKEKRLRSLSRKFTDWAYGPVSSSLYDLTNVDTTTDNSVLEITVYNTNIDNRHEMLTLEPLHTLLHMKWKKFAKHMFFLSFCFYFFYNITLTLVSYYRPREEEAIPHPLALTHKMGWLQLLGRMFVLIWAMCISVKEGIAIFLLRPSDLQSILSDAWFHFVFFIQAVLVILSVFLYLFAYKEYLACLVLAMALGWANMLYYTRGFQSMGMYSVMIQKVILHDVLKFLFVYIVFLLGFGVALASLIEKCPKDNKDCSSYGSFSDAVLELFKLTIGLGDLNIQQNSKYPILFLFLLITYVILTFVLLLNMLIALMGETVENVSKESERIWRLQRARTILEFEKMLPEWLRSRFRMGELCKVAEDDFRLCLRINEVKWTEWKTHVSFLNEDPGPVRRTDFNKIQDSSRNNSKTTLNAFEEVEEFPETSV
Protocol: Test compounds were evaluated for ability to antagonize the activation of recombinant human TRPV3 using FLIPR® Tetra cellular screening. Specifically, on the day prior to the experiment recombinant HEK293 cells that stably express human TRPV3 were removed from tissue culture flasks and plated in growth medium at 20,000 cells/well into Poly-d-lysine coated black/clear 384-well Plate (Corning, 3845) using a Multidrop® dispenser (ThermoScientific, Waltham, Mass.). Prior to the start of the assay, the medium was removed by aspiration, and cells were loaded with 30 μL no-wash FLIPR® Calcium-4 dye (λEX=470-495 nm, λEM=515-575 nm; Molecular Devices, Sunnyvale, Calif.). The cells were then incubated for 90-120 minutes in the dark prior to addition of the test compound.
A double-addition protocol was used. The test compound (i.e., the TRPV3 antagonist) was added at the 10 second time point, followed by the addition of a TRPV3 agonist three minutes later. Each test compound evaluated was first dissolved in DMSO to prepare a 10 mM stock solution. A solution (5×) of the test compound was then prepared in DPBS (Dulbecco's Phosphate Buffered Saline) and 10 μL of that solution was added to the cells at a delivery rate of 40 μL/sec. The TRPV3 agonist used to activate human TRPV3 expressed by the […] was 2-aminoethoxy-diphenyl borate (2-APB; Tocris Cookson, Ellisville, Mo.) at 80 μM. Final assay volume was 50 μL. Total length of an experimental run was 10 minutes.
Changes in fluorescence were measured over time using the FLIPR® instrument. The intensity of the fluorescence was captured and digitally transferred to an interfaced computer. The maximum response minus minimum response was calculated and expressed as the percentage of the maximum 2-APB response in the absence of antagonist. The concentration of 2-APB corresponds to its EC80.
Table 1 reports the IC50 values measured for the test compounds as human TRPV3 antagonists. […] Actual measured values are shown parenthetically after the reported range. In most cases, the values reported are average values from at least two runs (i.e., n≧2).

[1] = In vitro rat microsomal stability assay; format: in vitro ADME, rat (Sprague-Dawley); conditions: Sprague-Dawley, rat, 0.5 h, 0.5 μM, pH 7.4
Protocol: (§1) Test compounds were evaluated for metabolic stability in an in vitro rat microsomal stability assay using rat (Sprague-Dawley, from BD Biosciences) liver microsomes and/or an in vitro human microsomal stability assay using human (Xenotech) liver microsomes. […] Incubations were carried out at 37° C. with a final incubation volume of 135 μL. […] A 1.5 μL aliquot of reduced nicotine adenine disphosphonucleotide (NADPH) (Chem-Impex Int'L Inc., Lot 12532024) was also added to the time-zero plates.

[2] = In vitro human microsomal stability assay; format: in vitro ADME; conditions: human, 0.5 h, 0.5 μM, pH 7.4
Protocol: as §1

| SMILES | IC50 (human TRPV3) | RAT MICROSOMAL STABILITY (% REMAINING AFTER 30 MINUTES) [1] | HUMAN MICROSOMAL STABILITY (% REMAINING AFTER 30 MINUTES) [2] |
| --- | --- | --- | --- |
| OC(c1ncccn1)C1(c2ccc(OC(F)(F)F)cc2)CCC1 (stereo not shown) [Example 31, pyrimidin-2-yl{1-[4-(trifluoromethoxy)phenyl]cyclobutyl}methanol] | 1.1 to 5 µM |  |  |
| OC(c1ncccn1)C1(c2cccc(F)c2)CCC1 (stereo not shown) [Example 33, [1-(3-fluorophenyl)cyclobutyl](pyrimidin-2-yl)methanol] | 5.1 to 20 µM |  |  |
| OC(c1ncccn1)C1(c2ccc(F)c(F)c2)CCC1 (stereo not shown) [Example 35, [1-(3,4-difluorophenyl)cyclobutyl](pyrimidin-2-yl)methanol] | 5.1 to 20 µM |  |  |
| OC(c1ncccn1)C1(c2ccccc2OC(F)(F)F)CCC1 (stereo not shown) [Example 36, pyrimidin-2-yl{1-[2-(trifluoromethoxy)phenyl]cyclobutyl}methanol] | 5.1 to 20 µM |  |  |
| CC(c1cccc(Cl)c1)C1(C(O)c2ccccn2)CCC1 (stereo not shown) [Example 44, {1-[1-(3-chlorophenyl)ethyl]cyclobutyl}(pyridin-2-yl)methanol] | 5.1 to 20 µM |  |  |
| CC(c1cccc(F)c1)C1(C(O)c2ccccn2)CCC1 (stereo not shown) [Example 47, {1-[1-(3-fluorophenyl)ethyl]cyclobutyl}(pyridin-2-yl)methanol] | 1.1 to 5 µM |  |  |
| CC(c1ccccc1F)C1(C(O)c2ccccn2)CCC1 (stereo not shown) [Example 48, {1-[1-(2-fluorophenyl)ethyl]cyclobutyl}(pyridin-2-yl)methanol] | 5.1 to 20 µM |  |  |
| CC(c1ccccc1)C1(C(O)c2ccccn2)CCC1 (stereo not shown) [Example 51, [1-(1-phenylethyl)cyclobutyl](pyridin-2-yl)methanol] | 5.1 to 20 µM |  |  |
| CC(c1ccc(C(F)(F)F)cc1)C1(C(O)c2ccccn2)CCC1 (stereo not shown) [Example 53, pyridin-2-yl(1-{1-[4-(trifluoromethyl)phenyl]ethyl}cyclobutyl)methanol] | 1.1 to 5 µM |  |  |
| OC(c1ccccn1)C1(c2ccccc2)CCOCC1 (stereo not shown) [Example 60, (4-phenyltetrahydro-2H-pyran-4-yl)(pyridin-2-yl)methanol] | 5.1 to 20 µM |  |  |
| OC(c1ccccn1)C1(c2cccc(F)c2)CCOCC1 (stereo not shown) [Example 61, [4-(3-fluorophenyl)tetrahydro-2H-pyran-4-yl](pyridin-2-yl)methanol] | 5.1 to 20 µM |  |  |
| OC(c1ccccn1)C1(c2ccc(F)cc2)CCOCC1 (stereo not shown) [Example 62, [4-(4-fluorophenyl)tetrahydro-2H-pyran-4-yl](pyridin-2-yl)methanol] | 5.1 to 20 µM |  |  |
| OC(c1ccccn1)C1(c2ccc(F)c(F)c2)CCOCC1 (stereo not shown) [Example 63, [4-(3,4-difluorophenyl)tetrahydro-2H-pyran-4-yl](pyridin-2-yl)methanol] | 5.1 to 20 µM |  |  |
| OC(c1ccccn1)C1(c2ccc(Cl)cc2)CCOCC1 (stereo not shown) [Example 64, [4-(4-chlorophenyl)tetrahydro-2H-pyran-4-yl](pyridin-2-yl)methanol] | 1.1 to 5 µM |  |  |
| OC(c1ccccn1)C1(c2ccc(C(F)(F)F)cc2)CCOCC1 (stereo not shown) [Example 65, pyridin-2-yl{4-[4-(trifluoromethyl)phenyl]tetrahydro-2H-pyran-4-yl}-methanol] | 1.1 to 5 µM |  |  |
| OC(CC1(c2ccccc2)CCC1)c1ccccn1 (stereo not shown) [Example 68, 2-(1-phenylcyclobutyl)-1-(pyridin-2-yl)ethanol] | 1.1 to 5 µM |  |  |

| SMILES | IC50 (human TRPV3) | RAT MICROSOMAL STABILITY (% REMAINING AFTER 30 MINUTES) [1] | HUMAN MICROSOMAL STABILITY (% REMAINING AFTER 30 MINUTES) [2] |
| --- | --- | --- | --- |
| OC(CC1(c2ccc(Cl)cc2)CCC1)c1ccccn1 (stereo not shown) [Example 69, 2-[1-(4-chlorophenyl)cyclobutyl]-1-(pyridin-2-yl)ethanol] | 1.1 to 5 µM |  |  |
| OC(CC1(c2ccc(F)cc2)CCC1)c1ccccn1 (stereo not shown) [Example 70, 2-[1-(4-fluorophenyl)cyclobutyl]-1-(pyridin-2-yl)ethanol] | 5.1 to 20 µM |  |  |
| OC(CC1(c2cccc(F)c2)CCC1)c1ccccn1 (stereo not shown) [Example 71, 2-[1-(3-fluorophenyl)cyclobutyl]-1-(pyridin-2-yl)ethanol] | 1.1 to 5 µM |  |  |
| OC(CC1(c2cccc(Cl)c2)CCC1)c1ccccn1 (stereo not shown) [Example 72, 2-[1-(3-chlorophenyl)cyclobutyl]-1-(pyridin-2-yl)ethanol] | 1.1 to 5 µM |  |  |
| OC(CC1(c2ccc(Cl)c(Cl)c2)CCC1)c1ccccn1 (stereo not shown) [Example 73, 2-[1-(3,4-dichlorophenyl)cyclobutyl]-1-(pyridin-2-yl)ethanol] | 1.1 to 5 µM |  |  |
| OC(c1ccccn1)C1(c2ccc(C(F)(F)F)cc2)CCOC1 (stereo not shown) [Example 78, pyridin-2-yl{3-[4-(trifluoromethyl)phenyl]tetrahydrofuran-3-yl}methanol] | 1.1 to 5 µM |  |  |
| OC(c1ccccn1)C1(c2cccc(OC(F)(F)F)c2)CCOC1 (stereo not shown) [Example 80, pyridin-2-yl{3-[3-(trifluoromethoxy)phenyl]tetrahydrofuran-3-yl}methanol] | 1.1 to 5 µM |  |  |
| OC(c1ccccn1)C1(c2cccc(Cl)c2)COC1 (stereo not shown) [Example 86, [3-(3-chlorophenyl)oxetan-3-yl](pyridin-2-yl)methanol] | 1.1 to 5 µM |  |  |
| O=C1CC(c2cc(C(F)(F)F)ccn2)(C(O)c2ccccn2)C1 (stereo not shown) [Example 293, 3-[hydroxy(pyridin-2-yl)methyl]-3-[4-(trifluoromethyl)pyridin-2-yl]cyclobutanone] |  | 69% | 78% |
| OC1CC(c2cc(C(F)(F)F)ccn2)([C@H](O)c2ccccn2)C1 (stereo partly drawn) [Example 294, 3-[(S)-hydroxy(pyridin-2-yl)methyl]-3-[4-(trifluoromethyl)pyridin-2-yl]cyclobutanol] |  | >85% | >85% |
| O=C1CC(c2cncc(C(F)(F)F)c2)(C(O)c2ccccn2)C1 (stereo not shown) [Example 295, 3-[hydroxy(pyridin-2-yl)methyl]-3-[5-(trifluoromethyl)pyridin-3-yl]cyclobutanone] |  | 8.2% | 70% |
| O=C1CC(c2cncc(C(F)(F)F)c2)([C@H](O)c2ccccn2)C1 [Example 296, 3-[(S)-hydroxy(pyridin-2-yl)methyl]-3-[5-(trifluoromethyl)pyridin-3-yl]cyclobutanone] |  | 12% | 67% |
| OC(c1ccccn1)C1(c2ccnc(C(F)(F)F)c2)CC2(C1)OCCO2 (stereo not shown) [Example 297, pyridin-2-yl{2-[2-(trifluoromethyl)pyridin-4-yl]-5,8-dioxaspiro[3.4]oct-2-yl}methanol] |  | 2.0% | >85% |
| O=C1CC(c2ccnc(C(F)(F)F)c2)(C(O)c2ccccn2)C1 (stereo not shown) [Example 298, 3-[hydroxy(pyridin-2-yl)methyl]-3-[2-(trifluoromethyl)pyridin-4-yl]cyclobutanone] |  | 59% | 80% |
| O=C1CC(c2ccnc(C(F)(F)F)c2)([C@H](O)c2ccccn2)C1 [Example 299, 3-[(S)-hydroxy(pyridin-2-yl)methyl]-3-[2-(trifluoromethyl)pyridin-4-yl]cyclobutanone] |  | >85% | >85% |
| CC1(O)CC(c2ccc(OC(F)(F)F)cc2)(C(O)c2ncccn2)C1 [Example 310, (trans)-3-((S)-hydroxy(pyrimidin-2-yl)methyl)-1-methyl-3-(4-(trifluoromethoxy)phenyl)cyclobutanol] |  | >85% | >85% |
